The values that follow come from EP0051773A1, “Penicillins, their salts, process for their preparation and pharmaceutical compositions containing them” (Dr. Karl Thomae GmbH, priority 1980, dated 1982).

Converted amounts (≈) assume the structure as drawn.

The subject of assay [1] is Enterobacter cloacae ATCC 13 047. Description: serial dilution test in microtiter system (bacteriostasis, MIC). The assay is classed as cell-based. Particulars: ATCC13, liquid medium, 18 to 20 h at 37°C, read-out: MHK-Werte Eb. cloacae 13 047.
Assay [2] deals with Escherichia coli ATCC 11 775. The assay is described as above. Type of assay: cell-based. Particulars: ATCC11, liquid medium, 18 to 20 h at 37°C, read-out: MHK-Werte E.coli ATCC 11 755.
Assay [3] relates to Klebsiella pneumoniae ATCC 10 031. The assay is described as above. Type of assay: cell-based. Particulars: ATCC10, liquid medium, 18 to 20 h at 37°C, read-out: MHK-Werte Kl. pneum. ATCC 10 031.
For assay [4], the system named is Klebsiella pneumoniae BC 6. The description is as above. Type of assay: cell-based. The settings on record: BC6, liquid medium, 18 to 20 h at 37°C, read-out: MHK-Werte Kl. pneum. BC 6.
Assay [5] concerns Proteus mirabilis Hamburgensis. The description is as above. The assay is classed as cell-based. The settings on record: liquid medium, 18 to 20 h at 37°C, read-out: MHK-Werte Prot. mir. Hbg.
The subject of the next assay is Proteus rettgeri BC 7. Described as above. Type of assay: cell-based. Particulars: Providencia rettgeri, BC7; liquid medium, 18 to 20 h at 37°C; read-out: MHK-Werte Prot. rettg. BC 7.
Assay [6] deals with Pseudomonas aeruginosa Hamburgensis. Described as above. The settings on record: liquid medium, 18 to 20 h at 37°C, read-out: MHK-Werte Pseud. aerug. Hbg. Type of assay: cell-based.
The test system of assay [7] is Pseudomonas aeruginosa Walter. The assay is described as above. The assay is classed as cell-based. The settings on record: liquid medium, 18 to 20 h at 37°C, read-out: MHK-Werte Pseud. aerug. Walter.
Assay [8] has as its system Serratia marcescens ATCC 13 880. Described as above. The assay is classed as cell-based. Particulars: ATCC13, liquid medium, 18 to 20 h at 37°C, read-out: MHK-Werte Serr. marcesc. ATCC 13 880.
The subject of assay [9] is Staphylococcus aureus SG 511. Described as above. The assay is classed as cell-based. Particulars: SG511, liquid medium, 18 to 20 h at 37°C, read-out: MHK-Werte Staph. aureus SG 511.
In a further assay the test system is E.coli ATCC 11 775. The assay is described as follows: experimental intraperitoneal infection in mice, ED50 (survival). Type of assay: in vivo, Mäuse. The settings on record: Escherichia coli, ATCC 11 / ATCC 1175, sc, 168 h; female NMRI mice, i.p. infection, s.c. application, treated once, 7 days observation. The procedure: (§1) Eine Reihe der erfindungsgemäßen Verbindungen wurde in vivo bei experimentellen Infektionen an Mäusen untersucht. Man verwendete als pathogene Bakterien E.coli ATCC 11 775 und Pseudomonas aeruginosa Walter. Es wurde eine intraperitoneale Infektion mit 0,2 ml einer 5%igen Mucinsuspension der Bakterien gesetzt. Dies entspricht etwa 2x10^6 Keime E.coli bzw. 8x10^5 Keime Pseudomonas/Maus. Weibliche Mäuse vom Stamm NMRI wurden in Gruppen von jeweils 10 Tieren aufgeteilt, zwei Gruppen blieben unbehandelt, die restlichen Gruppen wurden mit verschiedenen Dosen der jeweiligen erfindungsgemäßen Penicilline zur Bestimmung der ED50 (Dosis, bei der 50 % der Tiere überleben) behandelt. Bei der E.coli-Infektion wurde einmal therapiert. Bei der Pseudomonas-Infektion wurde dreimal behandelt.
(§2) Der Beobachtungszeitraum betrug in beiden Fällen 7 Tage. Die Ergebnisse dieser Teste mit repräsentativen Vertretern der erfindungsgemäßen Penicilline sind in der Tabelle 3 dargestellt.

Assay [10] deals with Pseudomonas aeruginosa Walter. The description is as above. Type of assay: in vivo, Mäuse. Particulars: sc, 168 h, female NMRI mice, i.p. infection, s.c. application, treated three times, 7 days observation, read-out: ED50 Pseud. aerug. Walter. The procedure: as §1, §2

In general, ED50 refers to the midpoint of the dose-response relation. With `CC1(C)S[C@@H]2[C@H](NC(=O)C(NC(=O)Nc3cnc(NCc4ccc(S(N)(=O)=O)cc4)nc3O)c3ccc(O)cc3)C(=O)N2[C@H]1C(=O)O` (stereo partly drawn) [Verbindung 64], the MIC is 2 µg/mL (≈ 2.91 µM) in assay [1]; 0.12 µg/mL (≈ 0.175 µM) in [2]; 4 µg/mL (≈ 5.82 µM) in [3]; 4 µg/mL (≈ 5.82 µM) in assay [4]; 0.06 µg/mL (≈ 0.0874 µM) in assay [5]; 0.5 µg/mL (≈ 0.728 µM) in the assay with Proteus rettgeri BC 7. In addition, the MIC amounted to 2 µg/mL (≈ 2.91 µM) in [6], 1 µg/mL (≈ 1.46 µM) in assay [7], 0.25 µg/mL (≈ 0.364 µM) in [8] and 0.25 µg/mL (≈ 0.364 µM) in [9]. Also, the 50% effective dose (ED50) with E.coli ATCC 11 775 was 2.4 mg/kg; in assay [10], 12.4 mg/kg.
